According to patent EP4635944A1, “2-AZABICYCLO[3.1.1]HEPTANE COMPOUND” (Daiichi Sankyo Company, Limited, priority 2022, dated 2024):

How the values were obtained:
[1] = Evaluation of metabolic stability in human liver microsomes; type: in vitro ADME; conditions: for metabolic stability compared to the corresponding compounds that were not deuterated: human liver microsomes, 30 minutes, deuterated at specific positions; for Human metabolic stability Residual ratio (%): test compound 1 µM, human liver microsomes 0.5 mg/mL, 30 minutes at 37°C
Description: Evaluation of metabolic stability of OX2R agonist
The test compound (final concentration was 1 µM, dissolved in DMSO/acetonitrile = 1/99), pooled human liver microsomes (final concentration was 0.5 mg/mL), and sodium phosphate buffer (pH 7.4, final concentration was 100 mM) were admixed and preincubated at 37°C for 15 minutes. Thereafter, a mixed solution of glucose-6-phosphate (final concentration was 10 mM), glucose-6-phosphate dehydrogenase (final concentration was 1 U/mL), and magnesium chloride (final concentration was 3.3 mM) was added and a certain amount of the mixture was collected. Then, an acetonitrile/methanol mixed solution (75/25, v/v) containing a 4.5-fold volume of internal standard substances (final concentrations: phenacetin: 1 ng/mL, niflumic acid: 15 ng/mL, furosemide: 20 ng/mL) was added to stop the reaction (0 min sample). Subsequently, β-nicotinamide adenine dinucleotide phosphate (final concentration was 1 mM) was added, and after 30 minutes of incubation at 37°C, a certain amount of the mixture was collected, to which an acetonitrile/methanol mixed solution (75/25, v/v) containing a 4.5-fold volume of the internal standard substances was added to stop the reaction (30 min sample). For both samples, a portion of the supernatant after centrifugation (about 1200 × g, 4°C, 15 minutes) was injected into a liquid chromatograph tandem quadrupole mass spectrometer (LC-MS/MS) for analysis. The metabolic stability was evaluated by comparing the test compound/internal standard substance ratio of the 30 min sample with the 0 min sample and calculating the residual ratio of the test compound. […]

[2] = target: T1, human OX2R (Homo sapiens, UniProt O43614); assay: Evaluation of OX2R agonist activity (intracellular calcium, CHO-K1 cells with forced expression of human OX2R); type: cell-based; conditions: CHO-K1 cells expressing human OX2R; 100% = 5 µM of the reference compound; read-out: hOX2R EC50
T1 construct: host or cells: CHO-K1 (Chinese Hamster Ovary K1)
T1 sequence (O43614 1-444): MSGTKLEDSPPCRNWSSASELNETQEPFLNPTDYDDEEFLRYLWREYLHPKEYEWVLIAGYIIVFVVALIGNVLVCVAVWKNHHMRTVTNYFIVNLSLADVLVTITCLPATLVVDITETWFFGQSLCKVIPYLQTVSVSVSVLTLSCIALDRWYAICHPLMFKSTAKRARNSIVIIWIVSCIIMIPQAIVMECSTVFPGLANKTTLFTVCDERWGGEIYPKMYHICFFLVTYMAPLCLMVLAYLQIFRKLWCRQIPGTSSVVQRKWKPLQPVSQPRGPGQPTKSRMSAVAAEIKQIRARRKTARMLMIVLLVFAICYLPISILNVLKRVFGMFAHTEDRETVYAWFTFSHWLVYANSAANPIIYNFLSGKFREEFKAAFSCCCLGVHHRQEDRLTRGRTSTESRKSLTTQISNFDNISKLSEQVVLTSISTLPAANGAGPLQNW
Procedure, shortened: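 Cells seeded 7500/well, cultured 24 h, loaded with Fluo 4-AM (2.5 µg/mL final) plus probenecid for 30 min. Calcium response read as 480/540 nm excitation ratio; max–min signal 5–7 s after compound addition, normalized to buffer (0%) and 5 µM reference agonist (100%). EC50 from concentration series; 0.5% DMSO final.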

| Structure (SMILES) | Human metabolic stability Residual ratio (%) [1] [%] | EC50 [2] [nM] | metabolic stability compared to the corresponding compounds that were not deuterated [1] |
| --- | --- | --- | --- |
| [2H]C([2H])([2H])C([2H])(O)C(=O)N1C2CC(F)(C2)C(NS(=O)(=O)CC)C1Cc1cc(F)cc(-c2ccccc2)c1F (single isomer, unassigned) [Example 95, N-{3-[(2,5-Difluoro[biphenyl]-3-yl)methyl]-5-fluoro-2-[2-hydroxy(^2H4)propanoyl]-2-azabicyclo[3.1.1]heptan-4-yl}ethanesulfonamide] | 52 | 19 | improved metabolic stability |
| [2H][C@](C)(O)C(=O)N1C2CC(F)(C2)[C@H](NS(C)(=O)=O)[C@@H]1Cc1cccc(-c2ccccc2)c1F [Example 99, N-{(3S,4R)-5-Fluoro-3-[(2-fluoro[biphenyl]-3-yl)methyl]-2-[(2R)-2-hydroxy(2-^2H)propanoyl]-2-azabicyclo[3.1.1]heptan-4-yl}methanesulfonamide] | 78 | 27 | improved metabolic stability |
| [2H][C@](C)(O)C(=O)N1C2CC(F)(C2)[C@H](NS(C)(=O)=O)[C@@H]1Cc1cc(F)cc(-c2ccccc2)c1F [Example 100, N-{(3S,4R)-3-[(2,5-Difluoro[biphenyl]-3-yl)methyl]-5-fluoro-2-[(2R)-2-hydroxy(2-^2H)propanoyl]-2-azabicyclo[3.1.1]heptan-4-yl}methanesulfonamide] | 70 | 43 | improved metabolic stability |
| C[C@@H](O)C(=O)N1C2CC(F)(C2)[C@H](NS(C)(=O)=O)[C@@H]1Cc1cc(F)cc(-c2ccccc2)c1F [Example 63, N-{(3S,4R)-3-[(2,5-Difluoro[biphenyl]-3-yl)methyl]-5-fluoro-2-[(2R)-2-hydroxypropanoyl]-2-azabicyclo[3.1.1]heptan-4-yl}methanesulfonamide] | 38 | 22 |  |
| C[C@@H](O)C(=O)N1C2CC(C2)[C@H](NS(C)(=O)=O)[C@@H]1Cc1cccc(-c2cccc(OC(F)(F)F)c2)c1F [Example 42, N-{(3S,4S)-3-{[2-Fluoro-3'-(trifluoromethoxy)[biphenyl]-3-yl]methyl}-2-[(2R)-2-hydroxypropanoyl]-2-azabicyclo[3.1.1]heptan-4-yl}methanesulfonamide] |  | 28 |  |
| CS(=O)(=O)N[C@H]1C2CC(C2)N(C(=O)C2(CO)CC2)[C@H]1Cc1cccc(-c2ccccc2)c1F [Example 73, N-[(3S,4S)-3-[(2-Fluoro[biphenyl]-3-yl)methyl]-2-{[1-(hydroxymethyl)cyclopropyl]carbonyl}-2-azabicyclo[3.1.1]heptan-4-yl]methanesulfonamide] |  | 50 |  |
| CC(C(=O)N1C2CC(C2)[C@H](NS(C)(=O)=O)[C@@H]1Cc1cccc(-c2ccccc2)c1F)n1cccn1 (stereo partly drawn) [Example 93, N-{(3S,4S)-3-[(2-Fluoro[biphenyl]-3-yl)methyl]-2-[2-(1H-pyrazol-1-yl)propanoyl]-2-azabicyclo[3.1.1]heptan-4-yl}methanesulfonamide] |  | 23 |  |
| C[C@@H](O)C(=O)N1C2CC(C2)[C@H](NS(C)(=O)=O)[C@@H]1Cc1cccc(-c2cc(F)cc(C#N)c2)c1F [Example 31, N-{(3S,4S)-3-[(3'-Cyano-2,5'-difluoro[biphenyl]-3-yl)methyl]-2-[(2R)-2-hydroxypropanoyl]-2-azabicyclo[3.1.1]heptan-4-yl}methanesulfonamide] |  | 189 |  |
| CN(C)S(=O)(=O)N[C@H]1C2CC(C2)N(C(=O)C(C)(C)O)[C@H]1Cc1cccc(-c2cc(F)cc(F)c2)c1F (single isomer, unassigned) [Example 2] |  | 89 |  |
| CCNC(=O)N1C2CC(C2)[C@H](NS(C)(=O)=O)[C@@H]1Cc1cccc(-c2ccccc2)c1F [Example 37, (3S,4S)-N-Ethyl-3-[(2-fluoro[biphenyl]-3-yl)methyl]-4-[(methylsulfonyl)amino]-2-azabicyclo[3.1.1]heptane-2-carboxamide] |  | 18 |  |
| C[C@@H](O)C(=O)N1C2CC(C2)[C@H](NS(=O)(=O)C2CC2)[C@@H]1Cc1cccc(-c2ccccc2)c1F [Example 44, N-{(3S,4S)-3-[(2-Fluoro[biphenyl]-3-yl)methyl]-2-[(2R)-2-hydroxypropanoyl]-2-azabicyclo[3.1.1]heptan-4-yl}cyclopropanesulfonamide] |  | 22 |  |
| CC(C)S(=O)(=O)N[C@H]1C2CC(C2)N(C(=O)C(C)(C)O)[C@H]1Cc1cccc(-c2cc(F)cc(F)c2)c1F (single isomer, unassigned) [Example 4] |  | 225 |  |

Further lines, with some results ahead:

| Human metabolic stability Residual ratio (%) [1] [%] | EC50 [2] [nM] | Structure (SMILES) | metabolic stability compared to the corresponding compounds that were not deuterated [1] |
| --- | --- | --- | --- |
| 49 | 19 | C[C@@H](O)C(=O)N1C2CC(F)(C2)[C@H](NS(C)(=O)=O)[C@@H]1Cc1cccc(-c2ccccc2)c1F [Example 53, N-{(3S,4R)-5-Fluoro-3-[(2-fluoro[biphenyl]-3-yl)methyl]-2-[(2R)-2-hydroxypropanoyl]-2-azabicyclo[3.1.1]heptan-4-yl}methanesulfonamide] |  |
| 25 | 39 | CCS(=O)(=O)NC1C(Cc2cc(F)cc(-c3ccccc3)c2F)N(C(=O)[C@@H](C)O)C2CC1(F)C2 (single isomer, unassigned) [Example 91] |  |
| 34 | 24 | C[C@@H](O)C(=O)N1C2CC(C2)[C@H](NS(C)(=O)=O)[C@@H]1Cc1cccc(-c2ccccc2)c1F [Example 25, N-{(3S,4S)-3-[(2-Fluoro[biphenyl]-3-yl)methyl]-2-[(2R)-2-hydroxypropanoyl]-2-azabicyclo[3.1.1]heptan-4-yl}methanesulfonamide] |  |
|  | 35 | CS(=O)(=O)N[C@@H]1[C@H](Cc2cccc(-c3ccccc3)c2F)N(C(=O)[C@H](O)C(F)(F)F)C2CC1(F)C2 [Example 69, N-{(3S,4R)-5-Fluoro-3-[(2-fluoro[biphenyl]-3-yl)methyl]-2-[(2S)-3,3,3-trifluoro-2-hydroxypropanoyl]-2-azabicyclo[3.1.1]heptan-4-yl}methanesulfonamide] |  |
|  | 19 | CCS(=O)(=O)N[C@@H]1[C@H](Cc2cccc(-c3ccccc3)c2F)N(C(=O)[C@@H](C)O)C2CC1(F)C2 (single isomer, unassigned) [Example 83] |  |
